Like-named read-outs stand apart in the source and are kept apart here.
How the values were obtained:
5-HT1B = target: T1, 5-HT1B (Rattus norvegicus, UniProt P28564); assay: [3H]GR125743 receptor binding in rat cortex; parameters: species or system Wistar rat
T1 construct: from tissue; host or cells: Wistar rat cortex membranes
Procedure: (§1) The homogenate was pressure filtered through muslin. Filtrate was centrifuged at 1000 g for 10 min. […] Protein content was determined by Bradford's method.

[1] = LPS-induced blood glucose changes; format: in vivo, rat; settings: for LPS-induced early hyperglycemia: at 1 and 3 hours; for LPS-induced hypoglycemia: at 5 hours
Procedure: (§2) In brief, Wistar rats weighing 250-300 g were anesthetized with pentobarbital sodium (50 mg kg^−1, i.p.). Following tracheal cannulation, systemic arterial BP and HR were recorded from the femoral artery by a pressure transducer (model P10EZ; Spectramed, Oxnard, Calif., U.S.A.) connected to a recorder (GOULD, Valley View, Ohio, Model P50). Body temperature was maintained at 37° C. by an electric heating pad. A femoral vein was cannulated for intravenous injection of drugs and LPS (10 mg kg^−1).
(§3) Blood was collected from venous cannula, injected into ice-cold heparinized Eppendorf tubes and centrifuged at 1500 rpm for 10 min at 4° C. Plasma supernatant was stored at −70° C. until analyzed. Solid phase enzyme immunoassay that specifically detects murine IL-1β, IL-6, IFN-γ and TNF-α was used with a detection limit of >10 pg/ml (Endogen, U.S.A). Pre-treatment with KMST and other agents was performed 15 minutes before intravenous injection of LPS. Blood was collected from venous cannula. Blood glucose was measured with a glucose test strip (Glucotide, Bayer, U.S.A) at 1, 3 and 5 hours.

[2] = system: phenylephrine-induced contractions in rat thoracic aorta; assay: LPS-induced vascular hyporeactivity: phenylephrine-induced contractions in rat thoracic aorta; format: in vivo, Wistar rat
[3] = system: lipid peroxidation in rat brain homogenate; assay: lipid peroxidation initiated by Fe2+-ascorbic acid in rat brain homogenates (TBARS); format: biochemical; settings: rat brain homogenates; read-out: IC50 inhibiting lipid peroxidation initiated by Fe2+-ascorbic acid
Procedure: Rat brain homogenate was made in 0.9% saline containing 10 mg tissue/ml. The rates of membrane lipid peroxidation were measured by the formation of thiobarbituric acid (TBA)-reactive substance (TBARS). Rat brain homogenates (1 ml) were incubated at 37° C. for 5 min with 10 μl of test compound or vehicle. […] After 30 min of incubation, the reaction was stopped by adding 0.1 ml of 0.2% BHT. TBA reagent was then added and the mixture was heated for 30 min in a boiling water bath. […] The amount of TBARS was quantified using the linear regression obtained from malondialdehyde (MDA) standards.

[4] = system: IL-1β, IL-6, IFN-γ and TNF-α; assay: LPS-induced plasma cytokine immunoreactivity; format: in vivo, rat; settings: 1 hour after LPS administration
Procedure: as §2, §3

α1 receptors = assay: [3H]prazosin receptor binding in rat cortex; parameters: species or system Wistar rat
Procedure: as §1

α2 receptors = assay: [3H]yohimbine receptor binding in rat cortex; parameters: species or system Wistar rat
Procedure: as §1

[5] = system: serotonin-induced human platelet aggregation; assay: serotonin-induced human platelet aggregation; format: cell-based; settings: serotonin 5 μM, PRP; read-out: IC50 serotonin-induced human platelet aggregation
Procedure: (§4) Venous blood from human volunteer donors was collected in 10 ml Monovette containing 1 ml citrate solution (0.106M trisodium citrate; Sarstedt, Nümbrecht, Germany) and centrifuged (400 g, 10 min, 20° C.). […] After centrifugation (10 min, 2000 g, 20° C.), the platelet pellet was resuspended in wishing buffer (113 mM NaCl, 4 mM Na2HPO4, 24 mM NaH2PO4, 4 mM KCl, 0.2 mM EGTA(Ethylene glycol-bis-(2-aminoethyl ether) N,N,N′-tetraacetic acid), 0.1% (wt/vol) glucose, pH 6.0) and recentrifuged (10 min, 2000 g, 20° C.). The washed platelets were resuspended in incubation buffer (134 mM NaCl, 12 mM NaHCO3, 2.9 mM KCl, 0.34 mM NaH2PO4, 5 mM HEPES (N-(2-hydroxyethyl) piperazine-N′-(2-ethanesulfonic acid)), 5 mM glucose, pH7.4), cells were counted in a Sysmex hematology analyzer (Sysmex, CDA-500, Japan) and adjusted to a final concentration of 2×10^8 platelets/ml.
(§5) The aggregation of the platelets in platelet-rich plasma (PRP) was measured as a change in light absorbance by a Payton dual-channel aggregometer (NBS, Hema tracer, Japan). PRP (240 μL) was stirred (700 rpm) at 37° C. for 1 min, and 5 μL epinephrine (final concentration 5 μM), serotonin (final concentration 5 μM) was added. After which the rate of primary aggregation (1/min) and maximum aggregation (%) at 5 min were recorded. To study the effects of compounds on epinephrine or serotonin-induced aggregation, PRP was incubated with 5 μL of compounds at various concentrations for 1 min before epinephrine or serotonin was added. IC50 values given were calculated from the secondary aggregation data.

M2 = M2 receptor binding; parameters: species or system guinea pig
[6] = system: epinephrine-induced human platelet aggregation; assay: epinephrine-induced human platelet aggregation; format: cell-based; settings: epinephrine 5 μM, PRP
Procedure: as §4, §5

β2 receptors = target: T2, β2 receptors (Rattus norvegicus, UniProt P10608); assay: [3H]CGP-12177 receptor binding in rat lung; parameters: species or system Wistar rat; settings: [3H]CGP-12177, rat lung
T2 construct: from tissue; host or cells: Wistar rat lung membranes
T2 sequence (P10608 whole entry): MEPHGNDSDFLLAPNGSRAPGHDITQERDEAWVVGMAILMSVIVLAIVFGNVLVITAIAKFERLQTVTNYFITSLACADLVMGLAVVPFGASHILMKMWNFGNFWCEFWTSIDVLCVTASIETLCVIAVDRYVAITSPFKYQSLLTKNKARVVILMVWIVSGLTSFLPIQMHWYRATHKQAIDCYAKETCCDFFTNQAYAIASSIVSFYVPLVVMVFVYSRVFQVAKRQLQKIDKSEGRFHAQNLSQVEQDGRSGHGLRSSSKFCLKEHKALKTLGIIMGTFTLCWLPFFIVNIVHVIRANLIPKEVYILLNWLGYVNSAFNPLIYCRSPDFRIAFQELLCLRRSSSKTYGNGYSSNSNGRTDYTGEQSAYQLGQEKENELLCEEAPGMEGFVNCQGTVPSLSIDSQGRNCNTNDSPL
Procedure: as §1

β1 receptors = target: T3, β1 receptors (Rattus norvegicus, UniProt P18090); assay: [3H]CGP-12177 receptor binding in rat ventricle; parameters: species or system Wistar rat; settings: [3H]CGP-12177, rat ventricle
T3 construct: from tissue; host or cells: Wistar rat heart (ventricle) membranes
T3 sequence (P18090 whole entry): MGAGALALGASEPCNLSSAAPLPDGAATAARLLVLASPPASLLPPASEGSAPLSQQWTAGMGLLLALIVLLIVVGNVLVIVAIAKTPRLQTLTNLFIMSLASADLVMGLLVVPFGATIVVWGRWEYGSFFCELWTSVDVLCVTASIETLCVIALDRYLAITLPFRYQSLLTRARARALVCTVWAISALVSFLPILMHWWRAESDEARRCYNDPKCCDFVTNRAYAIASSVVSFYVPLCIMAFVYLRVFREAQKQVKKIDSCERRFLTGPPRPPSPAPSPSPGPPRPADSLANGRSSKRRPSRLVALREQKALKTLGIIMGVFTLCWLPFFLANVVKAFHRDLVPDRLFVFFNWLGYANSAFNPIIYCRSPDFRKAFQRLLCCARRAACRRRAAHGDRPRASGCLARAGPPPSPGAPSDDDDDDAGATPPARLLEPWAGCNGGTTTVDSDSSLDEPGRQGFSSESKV
Procedure: as §1

5-HT2A receptor = 5-HT2A receptor (Rattus norvegicus, UniProt P14842); assay: [3H]ketanserin receptor binding in rat cortex; parameters: from tissue; host or cells: Wistar rat cortex membranes; species or system Wistar rat
Chain of 5-HT2A receptor (P14842 whole entry): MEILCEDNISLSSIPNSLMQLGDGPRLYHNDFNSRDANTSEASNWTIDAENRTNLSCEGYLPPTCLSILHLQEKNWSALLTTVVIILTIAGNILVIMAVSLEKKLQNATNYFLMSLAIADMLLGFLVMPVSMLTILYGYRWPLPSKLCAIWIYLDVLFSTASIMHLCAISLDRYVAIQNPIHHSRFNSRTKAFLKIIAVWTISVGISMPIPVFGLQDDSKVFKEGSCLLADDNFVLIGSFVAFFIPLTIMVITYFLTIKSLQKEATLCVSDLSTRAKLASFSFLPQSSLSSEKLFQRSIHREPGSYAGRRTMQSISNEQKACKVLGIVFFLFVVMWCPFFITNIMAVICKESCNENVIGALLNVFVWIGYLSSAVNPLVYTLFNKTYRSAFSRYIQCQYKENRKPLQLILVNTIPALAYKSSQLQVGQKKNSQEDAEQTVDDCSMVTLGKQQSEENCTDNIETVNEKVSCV
Procedure: as §1

5-HT1A = target: T4, 5-HT1A (Rattus norvegicus, UniProt P19327); assay: [3H]WAY100635 receptor binding; settings: read-out: Ki 5-HT1A; [3H]WAY100635
T4 sequence (P19327 1-422): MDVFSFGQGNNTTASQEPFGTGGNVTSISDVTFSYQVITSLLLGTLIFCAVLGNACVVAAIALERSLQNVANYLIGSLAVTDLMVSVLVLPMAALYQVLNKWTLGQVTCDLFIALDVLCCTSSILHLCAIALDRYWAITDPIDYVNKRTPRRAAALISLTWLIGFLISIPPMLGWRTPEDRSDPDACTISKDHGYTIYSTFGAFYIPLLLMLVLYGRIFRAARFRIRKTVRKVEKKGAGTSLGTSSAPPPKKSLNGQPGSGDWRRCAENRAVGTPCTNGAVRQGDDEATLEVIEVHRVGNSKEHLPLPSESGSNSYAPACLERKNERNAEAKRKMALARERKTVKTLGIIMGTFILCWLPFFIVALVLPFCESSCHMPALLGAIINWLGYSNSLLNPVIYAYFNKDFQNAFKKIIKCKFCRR

[7] = agent given after LPS injection (1 hr), pD2 to phenylephrine
[8] = agent given before LPS injection (30 min), pD2 to phenylephrine
[9] = after LPS injection (1 hr), 15 mg kg-1
[10] = before LPS injection (30 min), 1 mg kg-1
[11] = before LPS injection (30 min), 15 mg kg-1
[12] = [3H]GR125743 (5-HT1B/1D), rat cortex, read-out: Ki 5-HT1B

T1 sequence (P28564 whole entry): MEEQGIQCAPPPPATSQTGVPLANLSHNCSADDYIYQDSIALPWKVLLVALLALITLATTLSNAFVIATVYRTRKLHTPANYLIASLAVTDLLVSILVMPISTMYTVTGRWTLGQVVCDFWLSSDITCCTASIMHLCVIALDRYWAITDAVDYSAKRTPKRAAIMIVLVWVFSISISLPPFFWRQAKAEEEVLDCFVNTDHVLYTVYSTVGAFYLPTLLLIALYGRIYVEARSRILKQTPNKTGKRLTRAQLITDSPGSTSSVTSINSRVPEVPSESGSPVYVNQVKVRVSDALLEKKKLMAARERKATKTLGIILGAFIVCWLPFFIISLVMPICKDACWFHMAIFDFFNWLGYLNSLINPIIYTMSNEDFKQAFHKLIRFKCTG

CCCCCCCCCOc1ccc2[nH]cc(CCN)c2c1 [5-nonyloxytryptamine, reference compound]
Ki (5-HT1B): 5.81 nM

Cl.N=C(N)NN [Aminoguanidine, aminoguanidine HCl]
LPS-induced early hyperglycemia [1]: inhibited | LPS-induced hypoglycemia [1]: did not affect | pD2 at 3rd hr [2, 7]: 6.48 ± 0.13 | pD2 at 5th hr [2, 7]: 5.81 ± 0.14 | pD2 at 3rd hr [2, 8]: 6.81 ± 0.17 | pD2 at 5th hr [2, 8]: 5.44 ± 0.31 | IC50 [3]: > 100000 nM

O=C1O[C@H]([C@@H](O)CO)C(O)=C1O [Ascorbic acid]
LPS-induced production of IFN-γ [4]: insignificantly enhanced | LPS-induced early hyperglycemia [1]: inhibited | LPS-induced hypoglycemia [1]: did not affect | pD2 at 3rd hr [2, 9]: 6.64 ± 0.16 | pD2 at 5th hr [2, 9]: 5.21 ± 0.12 | pD2 at 3rd hr [2, 10]: 7.07 ± 0.25 | pD2 at 5th hr [2, 10]: 5.04 ± 0.28 | pD2 at 3rd hr [2, 11]: 6.71 ± 0.13 | pD2 at 5th hr [2, 11]: 5.11 ± 0.22 | IC50 [3]: 7150 ± 140 nM

CC(C)NCC(O)COc1ccc(CC(N)=O)cc1 (stereo not drawn) [Atenolol]
Ki (α1 receptors): > 10000 nM | Ki (α2 receptors): > 10000 nM

CC=Cc1ccc(OCC(O)CN2CCN(c3ccc(Cl)cc3)CC2)c(OC)c1 (stereo not drawn) [Compound 2]
IC50 [5]: 4.73 nM | Ki (M2): > 10000 nM | Ki (5-HT1B; [12]): 1090 nM | Ki (α1 receptors): 47 nM | IC50 [6]: 3900 nM | Ki (β2 receptors): > 10000 nM | Ki (β1 receptors): 106 nM | Ki (5-HT2A receptor): 2.99 nM | Ki (5-HT1A): > 10000 nM | Ki (α2 receptors): 1970 nM

CC=Cc1ccc(OCCCN2CCN(c3cccc(Cl)c3)CC2)c(OC)c1 [Compound 3]
IC50 [5]: 530 nM | Ki (M2): > 10000 nM | Ki (5-HT1B; [12]): 770 nM | Ki (α1 receptors): 142 nM | IC50 [6]: 4.38 nM | Ki (β2 receptors): > 10000 nM | Ki (β1 receptors): 113 nM | Ki (5-HT2A receptor): 3.11 nM | Ki (5-HT1A): > 10000 nM | Ki (α2 receptors): 9290 nM

NCCc1c[nH]c2ccc(O)cc12 [Compound 5-HT, 5-Hydroxytryptamine]
Ki (α1 receptors): > 10000 nM | Ki (α2 receptors): > 10000 nM
